The target of assay [1] is Serine/threonine-protein kinase pim-2 (Homo sapiens) (UniProt Q9P1W9). Briefly: Inhibition of recombinant human GST-tagged PIM2 expressed in baculovirus expression system using serine/threonine-07 peptide as substrate at 10 uM by Z'-LYTE assay. The settings on record: time 60.0 min.
The target of assay [2] is Casein kinase I isoform epsilon (Homo sapiens) (UniProt P49674). The experiment in a line: Inhibition of human CSNK1E expressed in baculovirus expression system using serine/threonine-11 peptide as substrate at 10 uM incubated for 60 mins in presence of ATP by Z'-LYTE assay.
Assay [3] addresses Receptor-type tyrosine-protein kinase FLT3 (Homo sapiens) (UniProt P36888). Briefly: Inhibition of recombinant human His-tagged Flt3 expressed in baculovirus expression system using Tyr 02 peptide as substrate at 10 uM incubated for 60 mins in presence of ATP by Z'-LYTE assay.
In assay [4] the target is T1, Interleukin-1 receptor-associated kinase 4 (Homo sapiens) (UniProt Q9NWZ3).
T1 sequence (whole entry): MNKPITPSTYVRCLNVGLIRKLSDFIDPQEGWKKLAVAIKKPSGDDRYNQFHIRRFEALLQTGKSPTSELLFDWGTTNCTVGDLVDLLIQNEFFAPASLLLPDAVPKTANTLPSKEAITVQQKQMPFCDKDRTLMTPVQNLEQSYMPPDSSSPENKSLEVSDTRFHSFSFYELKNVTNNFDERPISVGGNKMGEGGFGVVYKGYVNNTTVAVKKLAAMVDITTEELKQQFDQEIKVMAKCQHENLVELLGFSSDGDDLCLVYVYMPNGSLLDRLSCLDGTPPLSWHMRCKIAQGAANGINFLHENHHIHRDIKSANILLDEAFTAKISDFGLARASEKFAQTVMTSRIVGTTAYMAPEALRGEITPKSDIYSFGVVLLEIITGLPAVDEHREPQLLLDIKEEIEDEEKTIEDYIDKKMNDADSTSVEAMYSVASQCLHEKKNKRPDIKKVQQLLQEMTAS
Briefly: Inhibition of recombinant human full length His-tagged IRAK4 expressed in baculovirus expression system using serine/threonine-07 peptide as substrate at 10 uM incubated for 60 mins in presence of ATP by Z'-LYTE assay.

Assay [5] concerns SH-SY5Y. The experiment in a line: Neuroprotective activity in human SH-SY5Y cells assessed by effect on TDP-43 levels preincubated for 1 hr followed by incubation with ethacrynic acid for 24 hrs measured at 10 uM by Western blot assay. The format is functional, cell-based. A general note: Immunoblotting shows a protein as a band on a membrane.
The target in assay [6] is Glycogen synthase kinase-3 beta (Homo sapiens) (UniProt P49841). The experiment in a line: Inhibition of recombinant human full length His-tagged GSK3B expressed in baculovirus expression system using serine/threonine-09 peptide as substrate at 10 uM incubated for 60 mins in presence of ATP by Z'-LYTE assay.
Assay [7] concerns the target CDC7/DBF4 (Cell division cycle 7-related protein kinase/Activator of S phase kinase) (Homo sapiens) (UniProt Q9UBU7+O00311). Briefly: Competitive inhibition of recombinant human full length N-terminal GST tagged CDC7/Dbf4 expressed in baculovirus infected Sf9 insect cells assessed as inhibition of substrate phosphorylation using PDKtide as substrate at 5 to 10 uM measured after 60 mins by ATP assay. The settings on record: dose 5-10 µM.

Assay [8] has as its target Homeodomain-interacting protein kinase 1 (Homo sapiens) (UniProt Q86Z02). Briefly: Inhibition of recombinant human full length GST-tagged HIPK1 expressed in baculovirus expression system using serine/threonine-09 peptide as substrate at 10 uM incubated for 60 mins in presence of ATP by Z'-LYTE assay.
Assay [9] deals with Glycogen synthase kinase-3 alpha (Homo sapiens) (UniProt P49840). The experiment in a line: Inhibition of recombinant human full length GST-tagged GSK3A expressed in baculovirus expression system using serine/threonine-09 peptide as substrate at 10 uM incubated for 60 mins in presence of ATP by Z'-LYTE assay.
For assay [10], the target named is Serine/threonine-protein kinase pim-1 (Homo sapiens) (UniProt P11309). The experiment in a line: Inhibition of recombinant human HIS-tagged PIM1 expressed in baculovirus expression system using serine/threonine-07 peptide as substrate at 10 uM by Z'-LYTE assay. The following applies: time 60.0 min.
Assay [11] addresses Rho-associated protein kinase 1 (Homo sapiens) (UniProt Q13464). The experiment in a line: Inhibition of recombinant human GST-tagged ROCK1 expressed in baculovirus expression system using serine/threonine-07 peptide as substrate at 10 uM by Z'-LYTE assay. The settings on record: time 60.0 min.
The subject of assay [12] is SH-SY5Y. The experiment in a line: Neuroprotective activity in human SH-SY5Y cells assessed as decrease in ethacrynic acid-induced TDP-43 phosphorylation preincubated for 1 hr followed by incubation with ethacrynic acid for 24 hrs measured at 10 uM by Western blot assay. The format is functional, cell-based.
Assay [13] addresses Tyrosine-protein kinase ABL1 (Homo sapiens) (UniProt P00519). Briefly: Inhibition of recombinant full length human His-tagged ABL1 expressed in baculovirus expression system using tyrosine-2 peptide as substrate at 10 uM incubated for 60 mins in presence of ATP by Z'-LYTE assay.
Assay [14] concerns the target Platelet-derived growth factor receptor alpha (Homo sapiens) (UniProt P16234). Briefly: Inhibition of recombinant human GST-tagged PDGFRA expressed in baculovirus expression system using Tyr-04 peptide as substrate at 10 uM by Z'-LYTE assay. The following applies: time 60.0 min.
Assay [15] has as its target Serine/threonine-protein kinase PAK 1 (Homo sapiens) (UniProt Q13153). The experiment in a line: Inhibition of recombinant human full length GST-tagged PAK1 expressed in baculovirus expression system using serine/threonine-19 peptide as substrate at 10 uM by Z'-LYTE assay. The settings on record: time 60.0 min.
For assay [16], the target named is Mitogen-activated protein kinase 7 (Homo sapiens) (UniProt Q13164). Briefly: Inhibition of recombinant human full length GST-tagged MAPK7 expressed in baculovirus expression system using serine/threonine-04 peptide as substrate at 10 uM by Z'-LYTE assay. The following applies: time 60.0 min.
Assay [17] deals with Casein kinase I isoform alpha (Homo sapiens) (UniProt P48729). The experiment in a line: Inhibition of human CSNK1A1 expressed in baculovirus expression system using serine/threonine-11 peptide as substrate at 10 uM incubated for 60 mins in presence of ATP by Z'-LYTE assay.
Assay [18] has as its target Vascular endothelial growth factor receptor 2 (Homo sapiens) (UniProt P35968). The experiment in a line: Inhibition of recombinant human His-tagged KDR expressed in baculovirus expression system using Tyr-01 peptide as substrate at 10 uM incubated for 60 mins in presence of ATP by Z'-LYTE assay.

Activity calls are given as the source filed them. No cut-off for these calls is given here.

Consider `Brc1ccccc1CSc1ncnc2[nH]cnc12`, for which the inhibition result in [1], in assay [2], in assay [3], in assay [4], in assay [6] and in assay [8] was “inactive” throughout. The inhibition result in assay [9], in assay [10], in assay [11], in [13], in assay [14] and in assay [15] was “inactive” each time. Besides, the inhibition entry in assay [16], in assay [17] and in assay [18] was “inactive” in each case. Moreover, the outcome in the assay with SH-SY5Y [5] was inactive. Besides, the inhibition entry in [7] is “Active”. The outcome in the assay with SH-SY5Y [12] was Active.

For `Clc1cccc(CSc2ncnc3[nH]cnc23)c1`, the inhibition result in [1], in assay [2], in [3], in [4], in assay [6] and in assay [8] was “inactive” in each case. The inhibition result in [9], in assay [10], in assay [11], in [13], in assay [14] and in assay [15] was “inactive” in each case. Also, the inhibition entry in [16], in assay [17] and in assay [18] was “inactive” throughout. Moreover, the outcome in the assay on SH-SY5Y [5] was inactive. For the same compound, the inhibition entry in assay [7] was “Active”. In addition, the result with SH-SY5Y [12] was Active.

As to `c1ccc(CSc2ncnc3[nH]cnc23)cc1`, the inhibition entry in [1], in [2], in assay [3], in assay [4], in [6] and in assay [8] was “inactive” in each case. Moreover, the inhibition entry in assay [9], in [10], in assay [11], in [13], in assay [14] and in assay [15] was “inactive” throughout. For the same compound, the inhibition entry in assay [16], in [17] and in assay [18] was “inactive” in each case. Moreover, the outcome in the assay on SH-SY5Y [5] was inactive. Also, in assay [7], the inhibition entry is “Active”. In addition, the result in the assay on SH-SY5Y [12] was Active.

The values above are taken from ChEMBL document CHEMBL4732086, “Targeting nuclear protein TDP-43 by cell division cycle kinase 7 inhibitors: A new therapeutic approach for amyotrophic lateral sclerosis” (Eur J Med Chem, 2021).
